Measured values taken from the OPERA property sets (Mansouri et al. 2018).

SMILES | logP
CN(C)C(=O)Oc1ccc(Br)cc1 | 2.46
C=CCNC(=O)N(CCC)CCCCC(NC(C)=O)C(=O)NCc1ccccc1 (stereo not given) | 1.75
COc1n[n+]([O-])c2ccccc2[n+]1[O-] | -0.3
CCSc1nnc(C(C)(C)C)c(=O)n1N | 2.08
C#CCNC(=O)NCCCCC(NC(C)=O)C(=O)NCc1ccccc1 (stereo not given) | 0.23
Cc1cc2cc3c(C)cc(=O)oc3c(C)c2o1 | 3.14
C#CCOc1cc(NC=NOCC)cc(Cl)c1OCC#C | 2.6
O=S1CC2=NOS3=C2C(=NO3)C1 | -0.3
C#CCOc1cc(NC=NOCOC)cc(F)c1OCC#C | 1.7
C#CCC(C)OC(=O)Nc1ccc(OCC)c(OCC)c1 (stereo not given) | 2.86
Cc1cccc(O)c1C | 2.48
Nc1ncn(C2CC(O)C(CO)O2)c(=O)n1 (stereo not given) | -1.89
CC(C)(C)C(=O)OCn1cc(F)c(=O)[nH]c1=O | 0.66
C#CCOc1ccc(NC=NOC)cc1OCC#C | 1.6
C=CCN(N=O)C(=O)N(CCC)CCCC(NC(C)=O)C(=O)NCc1ccccc1 (stereo not given) | 2.16
CN(C)C(=O)Oc1cccc(N(C)C)c1 | 1.93
CCCc1ccc(OC(=O)N(C)C)cc1 | 3.15

Now from value to compound:

logP | SMILES
-0.33 | CNC(=O)NCCCC(NC(C)=O)C(=O)NCc1ccccc1 (stereo not given)
3.92 | COc1cccc(OC)c1C(=O)Nc1nnc(-c2ccc(Br)cc2)s1
3.5 | COc1cccc(OC)c1C(=O)Nc1nnc(-c2ccccc2)s1
2.23 | COc1ccc2cc(CC(=O)OCC(=O)N(C)C)ccc2c1
3.59 | CCOC(=O)CCOc1ccc(-n2sc3ccccc3c2=O)cc1
1.72 | NC(=O)Cc1ccc(-n2sc3ccccc3c2=O)cc1
1.41 | COc1ccc2cc(CC(=O)OCC(=O)N(CCO)CCO)ccc2c1
3.42 | C=CC(CC)OC(=O)Nc1ccc(OCC)c(OCC)c1 (stereo not given)
0.34 | CC(=O)NC(CCCNC(=O)NCCCl)C(=O)NCc1ccccc1 (stereo not given)
3.96 | COc1cccc(OC)c1C(=O)Nc1nnc(-c2ccc(Cl)cc2)s1
2.89 | COc1ccc2cc(CC(=O)OCC(=O)NC(C)C)ccc2c1
4.14 | CCOc1ccccc1NC(=O)OC1CCCCC1CN(C)C (stereo not given)
0.7 | COC(=O)NC(=S)Nc1ccccc1N
5.9 | CCCCCCOc1ccccc1NC(=O)OC1CCCCC1CN(C)C (stereo not given)
3.05 | CCN(CC)C(=O)COC(=O)Cc1ccc2cc(OC)ccc2c1
-0.6 | CC(=O)Nc1n[n+]([O-])c2ccccc2[n+]1[O-]
1.86 | CNC(=O)N(CCCC(NC(C)=O)C(=O)NCc1ccccc1)Cc1ccccc1 (stereo not given)
4.04 | CCCN(CCC)C(=O)COC(=O)Cc1ccc2cc(OC)ccc2c1
0.98 | CC(=O)NC(CCCNC(=O)N(C)N=O)C(=O)NCc1ccccc1 (stereo not given)
3.85 | COc1cccc(OC)c1C(=O)Nc1nnc(-c2ccc(C)cc2)s1
2.67 | CCCc1ccc(CO)cc1
3.07 | C#CC(CC)OC(=O)Nc1ccc(OCC)c(OCC)c1 (stereo not given)
2.71 | COc1ccc2cc(CC(=O)OCC(=O)N3CCCC3)ccc2c1
